Results taken from PMC3667390 (Cancer immunology, immunotherapy : CII, 2009).

Tested on: peptide-specific CD4 T cells
Assay type: cell-based, human
Settings: ELIspot and proliferation; peptide 10 μg/ml, CEA protein 1 μg/ml, 20-24 hours; day 15 of in vitro stimulation; three replicates

Sequence: MELLLVNKLKWNLAA [Peptide C140]
- reactivity of peptide-specific CD4 T cells: did not respond
